Source: PubChem BioAssay (NCI)
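Five concentrations, 48 hours, 96-well plates. TGI: total growth inhibition.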

Assays:
Test in all cases: NCI-60 cell line screen, 48 h
[1] = tested on: HCT-15 colon
[2] = tested on: SR leukemia
[3] = tested on: COLO 205 colon
[4] = tested on: TK-10 renal
[5] = tested on: OVCAR-4 ovarian
[6] = tested on: UACC-257 melanoma
[7] = tested on: RXF 393 renal
[8] = tested on: OVCAR-5 ovarian
[9] = tested on: HOP-62 NSCLC
[10] = tested on: UO-31 renal
[11] = tested on: A498 renal
[12] = tested on: SNB-19 CNS
[13] = tested on: SK-OV-3 ovarian
[14] = tested on: RPMI-8226 leukemia
[15] = tested on: OVCAR-3 ovarian
[16] = tested on: SK-MEL-5 melanoma
[17] = tested on: BT-549 breast
[18] = tested on: MOLT-4 leukemia
[19] = tested on: SF-268 CNS
[20] = tested on: SF-295 CNS
[21] = tested on: HOP-92 NSCLC
[22] = tested on: SW-620 colon
[23] = tested on: DU-145 prostate
[24] = tested on: MDA-N
[25] = tested on: ACHN renal
[26] = tested on: A549 NSCLC
[27] = tested on: SF-539 CNS
[28] = tested on: KM12 colon
[29] = tested on: MDA-MB-435
[30] = tested on: IGROV1 ovarian
[31] = tested on: PC-3 prostate
[32] = tested on: OVCAR-8 ovarian
[33] = tested on: MCF7 breast
[34] = tested on: 786-0 renal
[35] = tested on: MALME-3M melanoma
[36] = tested on: HS 578T breast
[37] = tested on: UACC-62 melanoma
[38] = tested on: CAKI-1 renal
[39] = tested on: HCC-2998 colon
[40] = tested on: SNB-75 CNS
[41] = tested on: NCI-H522 lung
[42] = tested on: EKVX NSCLC
[43] = tested on: NCI-H460 lung
[44] = tested on: HL-60(TB) leukemia
[45] = tested on: SN12C renal
[46] = tested on: U251 CNS
[47] = tested on: HCT-116 colon
[48] = tested on: NCI-H23 lung
[49] = tested on: CCRF-CEM leukemia
[50] = tested on: M14 melanoma
[51] = tested on: HT29 colon
[52] = tested on: SK-MEL-28 melanoma
[53] = tested on: LOX IMVI melanoma
[54] = tested on: NCI/ADR-RES ovarian
[55] = tested on: T-47D breast
[56] = tested on: NCI-H226 lung
[57] = tested on: SK-MEL-2 melanoma
[58] = tested on: K-562 leukemia
[59] = tested on: MDA-MB-231 breast

Measured: TGI

O=C1CN(c2ccccc2)C(=O)CN1NCNN1CC(=O)N(c2ccccc2)CC1=O
not listed: [53] | [54] | [55] | [56] | [57] | [58] | [59]
> 100 µM: all other assays above

C=CCOCn1cnc2c(=O)[nH]c(N)nc21
not listed: [6] | [7] | [15] | [17] | [21] | [41] | [51]
> 100 µM: all other assays above
